Drawing on ChEMBL document CHEMBL1150557, “Molecular design of novel PGI2 agonists without PG skeleton. I” (Bioorg Med Chem Lett, 1995), this text covers IC50 for ten compounds.

One assay has as its target Prostacyclin receptor (Homo sapiens, UniProt P43119). In words: Prostaglandin I2 receptor binding by displacement of [3H]iloprost from human platelets. Background: Displacement assays read how much labelled ligand stays bound in the presence of the test substance.
The species named for the next assay is Homo sapiens. In words: Evaluated for inhibition of 4 uM ADP-induced human platelet aggregation. In kind it is functional, organism-based.

Chain of Prostacyclin receptor (P43119 whole entry): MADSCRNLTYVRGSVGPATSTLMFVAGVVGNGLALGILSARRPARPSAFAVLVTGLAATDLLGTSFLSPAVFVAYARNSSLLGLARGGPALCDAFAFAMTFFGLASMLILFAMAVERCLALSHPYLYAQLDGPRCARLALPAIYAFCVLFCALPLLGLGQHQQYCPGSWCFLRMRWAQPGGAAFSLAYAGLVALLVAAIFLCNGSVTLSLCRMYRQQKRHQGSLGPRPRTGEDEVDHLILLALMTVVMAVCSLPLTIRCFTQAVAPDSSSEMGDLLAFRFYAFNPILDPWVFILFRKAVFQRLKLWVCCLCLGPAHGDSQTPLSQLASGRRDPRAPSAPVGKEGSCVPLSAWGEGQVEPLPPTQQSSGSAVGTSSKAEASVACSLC

`CCCCCC(O)/C=C/CC1CCc2c(cccc2OCC(=O)O)C1` (configuration not stated): the IC50 (commonly the concentration that gives 50% inhibition) at Prostacyclin receptor worked out at 7.8 µM.
As for `O=C(O)COc1cccc2c1CCCC2CC/C=N/OC(c1ccccc1)c1ccccc1` (configuration not stated), the IC50 was found to be 2100 nM in the assay listed under Homo sapiens and 0.6 µM at Prostacyclin receptor.
Turning to `O=C(O)COc1cccc2c1CCC(C/C=N/OC(c1ccccc1)c1ccccc1)C2` (configuration not stated), the values for the 50% inhibitory concentration (IC50) in the assay filed under Homo sapiens and at Prostacyclin receptor were 1100 nM and 0.65 µM, respectively.
In the case of `CCCCCC(O)/C=C/CCC1CCCc2c(OCC(=O)O)cccc21` (configuration not stated), on Prostacyclin receptor, the half-maximal inhibitory concentration (IC50) stood at 9.6 µM.
For the compound `O=C(O)COc1cccc(CCC/C=N/OC(c2ccccc2)c2ccccc2)c1`, the concentration for half-maximal inhibition (IC50) on Prostacyclin receptor was 3.9 µM.
For `O=C(O)COc1cccc2c1CCC(C/C=C/CC(c1ccccc1)c1ccccc1)C2` (configuration not stated), on Prostacyclin receptor, the IC50 worked out at 3.1 µM.
As to `CCCCCC(O)/C=C/CCCc1cccc(OCC(=O)O)c1` (configuration not stated), the IC50 at Prostacyclin receptor is 23 µM.
On to `O=C(O)COc1cccc2c1CCC(C/C=C/C(O)Cc1ccccc1)C2` (configuration not stated), for which the IC50 at Prostacyclin receptor turned out to be 4.9 µM.
`O=C(O)COc1cccc2c1CCC(C/C=C/CCc1ccccc1)C2` (configuration not stated) came in with an IC50 at Prostacyclin receptor of 5.3 µM.
On to `O=C(O)COc1cccc2c1CCC(C/C=C\CC(c1ccccc1)c1ccccc1)C2` (configuration not stated), for which the IC50 on Prostacyclin receptor came to 3 µM.
